Test results published in patent US20260022143A1, “Cyclic Peptide Inhibitors of IL-23” (JANSSEN PHARMACEUTICA NV, priority 2022, published 2026).
Starred links: 1 amine or outer side, 2 acyl side, 3 side chain; linkers in the order of their positions; H or OH if unused. Positions of bridges follow the written chain, without caps; N, C: chain ends. Non-standard residues stand in square brackets, D forms with d. Residues, ends and D or L forms follow the SMILES beside them. *: point of attachment. X56 = CCCCCCCCCCCC(=O)NCCOCCOCC(=O)NCCOCCOCC(=O)NCC[N+](C)(C)CC(=O)*; X33 = C[N+](C)(C)CCCCc1cn(-c2ccc(C[C@H](N[*:1])C(=O)[*:2])cc2)nn1; X51 = C[N+](C)(C)CCCc1cn(-c2ccc(C[C@H](N[*:1])C(=O)[*:2])cc2)nn1; Me3N+(CH2)2O(CH2)2O(CH2)2CO = C[N+](C)(C)CCOCCOCCC(=O)*; CH2CH2OCH2CH2OCH2CH2NMe3+ = C[N+](C)(C)CCOCCOCC*; Trp(7-Me) = Cc1cccc2c(C[C@H](N)C(=O)O)c[nH]c12; 2Nal = N[C@@H](Cc1ccc2ccccc2c1)C(=O)O; 3Pal = N[C@@H](Cc1cccnc1)C(=O)O; Lys(Me) = CNCCCC[C@H](N)C(=O)O; Agb = N=C(N)NCC[C@H](N)C(=O)O; NMeK = CN[C@@H](CCCCN)C(=O)O; Pen = CC(C)(S)[C@H](N)C(=O)O; X31 = N=C(N)NCCOCCC(=O)*; Thp = NC1(C(=O)O)CCOCC1; X17 = C[N+]1(CC*)CCOCC1; X3 = C[N+](C)(C)CCCCC*; Sar = CNCC(=O)O

Assay: Exposed Polar Surface Area (EPSA)
Assay type: physicochemical
Settings: SFC on Chirex 3014 column; sample 1 mM DMSO stock; read-out: EPSA
Procedure, shortened: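 Polarity measured by SFC on a Chirex 3014 column (35 °C, 4 mL/min) with methanol/ammonium formate in CO2 as gradient eluent. Retention times were normalised to EPSA (Å^2) against eight reference compounds.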

EPSA [A^2]	Structure (SMILES)
151	CCCCCCCCCCCC(=O)NCCOCCOCC(=O)NCCOCCOCC(=O)NCC[N+](C)(C)CC(=O)NCCCC[C@@H](C(N)=O)N(C)C(=O)[C@H](Cc1cccnc1)NC(=O)[C@H](CC(N)=O)NC(=O)[C@H](CCCCN(C)C(C)=O)NC(=O)C1(NC(=O)[C@H](Cc2ccc3ccccc3c2)NC(=O)[C@H](Cc2ccc(OCCCCC[N+](C)(C)C)cc2)NC(=O)[C@H]2NC(=O)[C@H](CCCCNC(C)=O)NC(=O)[C@H](Cc3c[nH]c4c(C)cccc34)NC(=O)[C@H]([C@@H](C)O)NC(=O)[C@H](CC(=O)N(C)C)NC(=O)[C@@H](NC(=O)CCOCCOCC[N+](C)(C)C)C(C)(C)SSC2(C)C)CCOCC1 [compound 407, cPEG3aCO-Pen(3)-N(N(Me)2)-T-7MeW-K(Ac)-Pen(3)-TMAPF-2Nal-THP-K(NMeac)-N-3Pya-NMeK(SP6PEG2PEG2C12)-CONH2] ({Me3N+(CH2)2O(CH2)2O(CH2)2CO}-[Pen]D(NMe2)T[Trp(7-Me)]K(Ac)[Pen]Y(X3)[2Nal][Thp][Lys(Me)](Ac)N[3Pal][NMeK](X56)-NH2; disulfide 1-6)
157	CC(=O)N[C@@H]1C(=O)N[C@@H](CCNC(=N)N)C(=O)N[C@@H]([C@@H](C)O)C(=O)N[C@@H](Cc2c[nH]c3c(C)cccc23)C(=O)N[C@@H](CCCCN(C)C(C)=O)C(=O)N[C@H](C(=O)N[C@@H](Cc2ccc(OCCOCCOCC[N+](C)(C)C)cc2)C(=O)N[C@@H](Cc2ccc3ccccc3c2)C(=O)NC2(C(=O)N[C@@H](CCCCN(C)C(C)=O)C(=O)N[C@@H](CC(N)=O)C(=O)N[C@@H](Cc3cccnc3)C(=O)N(C)CC(=O)N(C)C)CCOCC2)C(C)(C)SSC1(C)C [compound 412] (Ac-[Pen][Agb]T[Trp(7-Me)][Lys(Me)](Ac)[Pen]Y(CH2CH2OCH2CH2OCH2CH2NMe3+)[2Nal][Thp][Lys(Me)](Ac)N[3Pal][Sar]-NMe2; disulfide 1-6)
154	CC(=O)N(C)CCCC[C@@H]1NC(=O)[C@H](Cc2c[nH]c3c(C)cccc23)NC(=O)[C@H]([C@@H](C)O)NC(=O)[C@H](CC(=O)N(C)C)NC(=O)[C@@H](NC(=O)CCOCCNC(=N)N)C(C)(C)SSC(C)(C)[C@@H](C(=O)N[C@@H](Cc2ccc(OCCOCCOCC[N+](C)(C)C)cc2)C(=O)N[C@@H](Cc2ccc3ccccc3c2)C(=O)NC2(C(=O)N[C@@H](CCCCN(C)C(C)=O)C(=O)N[C@@H](CC(N)=O)C(=O)N[C@@H](Cc3cccnc3)C(=O)N(C)CC(=O)N(C)C)CCOCC2)NC1=O [compound 413, cPEG2gCO-Pen(3)-N(N(Me)2)-T-7MeW-K(NMeAc)-Pen(3)-APEG3F-2Nal-THP-K(NMeAc)-N-3Pya-Sar-CON(Me)2] (X31-[Pen]D(NMe2)T[Trp(7-Me)][Lys(Me)](Ac)[Pen]Y(CH2CH2OCH2CH2OCH2CH2NMe3+)[2Nal][Thp][Lys(Me)](Ac)N[3Pal][Sar]-NMe2; disulfide 1-6)
170	CC(=O)NCCCC[C@@H]1NC(=O)[C@H](Cc2c[nH]c3c(C)cccc23)NC(=O)[C@H]([C@@H](C)O)NC(=O)[C@H](CC(N)=O)NC(=O)[C@@H](NC(=O)CCOCCOCC[N+](C)(C)C)C(C)(C)SSC(C)(C)[C@@H](C(=O)N[C@@H](Cc2ccc(-n3cc(CCC[N+](C)(C)C)nn3)cc2)C(=O)N[C@@H](Cc2ccc3ccccc3c2)C(=O)NC2(C(=O)N[C@@H](CCCCNC(C)=O)C(=O)N[C@@H](CC(N)=O)C(=O)N[C@@H](Cc3cccnc3)C(=O)N(C)CC(N)=O)CCOCC2)NC1=O [compound 420, cPEG3aCO-Pen(3)-N-T-7MeW-K(Ac)-Pen(3)-F(4TzlTMA3)-2Nal-THP-K(Ac)-N-3Pya-Sar-CONH2] ({Me3N+(CH2)2O(CH2)2O(CH2)2CO}-[Pen]NT[Trp(7-Me)]K(Ac)[Pen][X51][2Nal][Thp]K(Ac)N[3Pal][Sar]-NH2; disulfide 1-6)
161	CC(=O)NCCCC[C@@H]1NC(=O)[C@H](Cc2c[nH]c3c(C)cccc23)NC(=O)[C@H]([C@@H](C)O)NC(=O)[C@H](CC(N)=O)NC(=O)[C@@H](NC(C)=O)C(C)(C)SSC(C)(C)[C@@H](C(=O)N[C@@H](Cc2ccc(-n3cc(CCC[N+](C)(C)C)nn3)cc2)C(=O)N[C@@H](Cc2ccc3ccccc3c2)C(=O)NC2(C(=O)N[C@@H](CCCCNC(C)=O)C(=O)N[C@@H](CC(N)=O)C(=O)N[C@@H](Cc3cccnc3)C(=O)N(C)CC(N)=O)CCOCC2)NC1=O [compound 423] (Ac-[Pen]NT[Trp(7-Me)]K(Ac)[Pen][X51][2Nal][Thp]K(Ac)N[3Pal][Sar]-NH2; disulfide 1-6)
161	CC(=O)NCCCC[C@@H]1NC(=O)[C@H](Cc2c[nH]c3c(C)cccc23)NC(=O)[C@H]([C@@H](C)O)NC(=O)[C@H](CC(N)=O)NC(=O)[C@@H](NC(C)=O)C(C)(C)SSC(C)(C)[C@@H](C(=O)N[C@@H](Cc2ccc(-n3cc(CCCC[N+](C)(C)C)nn3)cc2)C(=O)N[C@@H](Cc2ccc3ccccc3c2)C(=O)NC2(C(=O)N[C@@H](CCCCNC(C)=O)C(=O)N[C@@H](CC(N)=O)C(=O)N[C@@H](Cc3cccnc3)C(=O)N(C)CC(N)=O)CCOCC2)NC1=O [compound 425] (Ac-[Pen]NT[Trp(7-Me)]K(Ac)[Pen][X33][2Nal][Thp]K(Ac)N[3Pal][Sar]-NH2; disulfide 1-6 (inferred))
168	CC(=O)NCCCC[C@@H]1NC(=O)[C@H](Cc2c[nH]c3c(C)cccc23)NC(=O)[C@H]([C@@H](C)O)NC(=O)[C@H](CC(N)=O)NC(=O)[C@@H](NC(=O)CCOCCOCC[N+](C)(C)C)C(C)(C)SSC(C)(C)[C@@H](C(=O)N[C@@H](Cc2ccc(OCCCCC[N+](C)(C)C)cc2)C(=O)N[C@@H](Cc2ccc3ccccc3c2)C(=O)NC2(C(=O)N[C@@H](CCC(=O)O)C(=O)N[C@@H](CC(N)=O)C(=O)N[C@@H](Cc3cccnc3)C(=O)N(C)CC(N)=O)CCOCC2)NC1=O [compound 427, cPEG3aCO-Pen(3)-N-T-7MeW-K(Ac)-Pen(3)-TMAPF-2Nal-THP-E-N-3Pya-Sar-CONH2] ({Me3N+(CH2)2O(CH2)2O(CH2)2CO}-[Pen]NT[Trp(7-Me)]K(Ac)[Pen]Y(X3)[2Nal][Thp]EN[3Pal][Sar]-NH2; disulfide 1-6)
192	CC(=O)NCCCC[C@@H]1NC(=O)[C@H](Cc2c[nH]c3ccccc23)NC(=O)[C@H]([C@@H](C)O)NC(=O)[C@H](CC(N)=O)NC(=O)[C@@H](NC(=O)[C@@H](CCCNC(=N)N)NC(C)=O)C(C)(C)SSC(C)(C)[C@@H](C(=O)N[C@@H](Cc2ccc(OCC[N+]3(C)CCOCC3)cc2)C(=O)N[C@@H](Cc2ccc3ccccc3c2)C(=O)NC2(C(=O)N[C@@H](CCC(=O)O)C(=O)N[C@@H](CC(N)=O)C(=O)N[C@@H](Cc3cccnc3)C(=O)N(C)CC(N)=O)CCOCC2)NC1=O [compound 429] (Ac-[dR][Pen]NTWK(Ac)[Pen]Y(X17)[2Nal][Thp]EN[3Pal][Sar]-NH2; disulfide 2-7)
174	CC(=O)NCCCC[C@@H]1NC(=O)[C@H](Cc2c[nH]c3c(C)cccc23)NC(=O)[C@H]([C@@H](C)O)NC(=O)[C@H](CC(N)=O)NC(=O)[C@@H](NC(C)=O)C(C)(C)SSC(C)(C)[C@@H](C(=O)N[C@@H](Cc2ccc(OCC[N+]3(C)CCOCC3)cc2)C(=O)N[C@@H](Cc2ccc3ccccc3c2)C(=O)NC2(C(=O)N[C@@H](CCC(=O)O)C(=O)N[C@@H](CC(N)=O)C(=O)N[C@@H](Cc3cccnc3)C(=O)N(C)CC(N)=O)CCOCC2)NC1=O [compound 431] (Ac-[Pen]NT[Trp(7-Me)]K(Ac)[Pen]Y(X17)[2Nal][Thp]EN[3Pal][Sar]-NH2; disulfide 1-6 (inferred))
